Here are results for one compound from article PMC8391421, “Identification of Novel Positive Allosteric Modulators of Neurotrophin Receptors for the Treatment of Cognitive Dysfunction” (Cells, 2021).

The target of the assay is T1, full-length TrkA-HA (Homo sapiens, UniProt P04629).
T1 construct: Full-length TrkA with a HA-tag (TrkA-HA) fused to the C-terminus; A6 used the anti-HA immunoprecipitate and A14 the 12,000 x g lysate supernatant
In words: Kinase activity assay of immunoprecipitated HA-tagged full length TrkA (LANCE TR-FRET). Conditions: 5 µM compound, increasing ATP, vs DMSO. It is filed as biochemical. The method, then:
A cDNA expression plasmid (pCMV3) with C-terminal-HA tagged human NTRK1 cDNA subcloned between the HindIII and XbaI sites was obtained from SinoBiological (NordicBiosite, Sweden). The human neuroblastoma cell line SH-SY5Y (ATCC, LGC Standards GmbH, Wesel, Germany) was transfected with lipofectamine 3000 and 2 µg of the plasmid. Hygromycin was used for the selection, and expansion of the TrkA-positive clones were performed using 200 µg/mL of Hygromycin. A clone with stable TrkA–HA expression was used for protein expression. Briefly, SH-SY5Y-TrkA-HA cells were seeded in T175cm2 flasks and grown until confluency. A total of 10 flasks were used for each experiment. Cells were detached using Accutase and washed twice with Dulbecco’s PBS through centrifugation. The final cell pellet was resuspended in 2 mL lysis buffer (FNN0011, Thermo Fisher Scientific, Gothenburg, Sweden) supplemented with protease and phosphatase inhibitors and 1 mM DTT. The cell suspension was sonicated with a probe sonicator at 40% amplitude for 2 × 5 s. The resulting homogenate was centrifuged for 10 min at 12,000× g. […] TR-FRET was measured using an excitation wavelength of 340 nm and an emission wavelength of 665 nm with an iD5 plate reader (Molecular Devices, Berkshire, RG41 5TS UK). […]
(Time-resolved FRET reads energy transfer from a long-lived donor to a nearby acceptor.)

T1 sequence (P04629 33-796): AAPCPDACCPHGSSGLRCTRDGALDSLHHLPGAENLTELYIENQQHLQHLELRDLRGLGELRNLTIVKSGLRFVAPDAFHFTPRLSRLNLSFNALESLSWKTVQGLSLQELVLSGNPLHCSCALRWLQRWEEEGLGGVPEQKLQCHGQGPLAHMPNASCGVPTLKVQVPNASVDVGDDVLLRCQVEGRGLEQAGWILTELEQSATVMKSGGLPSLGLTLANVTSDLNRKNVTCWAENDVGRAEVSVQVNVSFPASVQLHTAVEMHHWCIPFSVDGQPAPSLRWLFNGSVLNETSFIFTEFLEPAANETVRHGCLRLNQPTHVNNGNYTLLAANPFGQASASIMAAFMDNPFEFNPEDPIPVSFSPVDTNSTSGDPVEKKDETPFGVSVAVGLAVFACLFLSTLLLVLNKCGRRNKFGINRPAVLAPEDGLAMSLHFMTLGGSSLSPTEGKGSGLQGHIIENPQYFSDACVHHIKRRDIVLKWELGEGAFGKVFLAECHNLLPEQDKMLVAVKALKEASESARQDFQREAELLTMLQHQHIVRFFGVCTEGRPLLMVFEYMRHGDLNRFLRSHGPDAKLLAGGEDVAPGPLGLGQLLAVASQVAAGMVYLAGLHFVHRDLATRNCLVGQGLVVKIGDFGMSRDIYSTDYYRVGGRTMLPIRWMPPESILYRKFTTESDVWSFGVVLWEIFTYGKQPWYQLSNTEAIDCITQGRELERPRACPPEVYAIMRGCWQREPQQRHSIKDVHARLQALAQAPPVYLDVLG

Take `Cc1cc(-n2c(=O)[nH]c(=O)n(C)c2=O)ccc1Oc1ccc(S(=O)(=O)C(F)(F)F)cc1` [ACD855, Toltrazuril-sulfone]: the “effect on Vmax(app) of TrkA” value is recorded as “significantly increase”.
